The text below walks through data of patent US12459951B2, “Compounds that interact with RAS superfamily proteins for treatment of cancers, inflammatory diseases, rasopathies, and fibrotic disease” (SHY Therapeutics, LLC, priority 2022, dated 2025).

The test system of assay [1] is Akt phosphorylation. Nature of the assay: Akt Phosphorylation Assay (western blot), Panc-1. It is filed as cell-based, human. To be noted: at 10 μM, * = activation. In short, it runs like this: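 Panc-1 (KRas G12D) cells were treated with compound at 10 μM final (0.3% DMSO) for 6 h at 37 °C, or with serial dilutions for IC50. Cells were either serum-starved overnight in 0.5% FBS and then stimulated with 1.5 ng/ml EGF for 15 min, or kept in 10% FBS without stimulation. Akt Ser473 phosphorylation in lysates was read by western blot.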
In general terms: In western blotting, separated proteins are transferred to a membrane and probed.

Assay [2] deals with KRas G12D mutant. Nature of the assay: Ras GTP Binding Domain Inhibition Assay (Ras Superfamily Assay). To be noted: at 20 μM; for KRas G12D mutant + SOS: % inh.: with SOS; for KRas G12D mutant: % inh.: without SOS. An outline of the steps: (§1)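 His-tagged GTPases immobilised on nickel-coated plates, pre-incubated with compound (20 μM single point, or serial dilution for IC50) 3 h at room temperature, with or without 10-30 μg/mL Sos (residues 556-1049) in the final hour. Bound Cy3- or Cy5-GTP (100 nM, 45 min) measured by fluorescence after washing.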

In assay [3] the target is T1, Rac-1 (Homo sapiens, UniProt P63000).
T1 construct: made in house
Described as above. The note with it: read-out: Rac-1: % inh. An outline of the steps:
as §1

Assay [4] deals with KRas wild type. The description is as above. The note with it: at 20 μM; for KRas wild type + SOS: % inh.: with SOS; for KRas wild type: % inh.: without SOS. In short, it runs like this:
as §1

In the case of `Cc1c(-c2ccn(C)n2)cn2nc(-c3nccn3C)nc(Nc3cc(OC(F)F)n(C)n3)c12` [Compound 254, N-(5-(Difluoromethoxy)-1-methyl-1H-pyrazol-3-yl)-5-methyl-2-(1-methyl-1H-imidazol-2-yl)-6-(1-methyl-1H-pyrazol-3-yl)pyrrolo[2,1-f][1,2,4]triazin-4-amine], the “% inh of Akt phosphorylation in Panc-1” value in assay [1] is reported as “D* (85-100% activation)”. Besides, in assay [2], the “KRas G12D mutant + SOS: % inh.” value is on record as “D (D = 76-100% inhibition)” and the “KRas G12D mutant: % inh.” value is recorded as “D (D = 76-100% inhibition)”. For the same compound, the inhibition at 20 µM in assay [3] was 76 to 100%. Also, in assay [4], the “KRas wild type + SOS: % inh.” value is on record as “D (D = 76-100% inhibition)” and the “KRas wild type: % inh.” value is recorded as “D (D = 76-100% inhibition)”.
Regarding `Cc1c(-c2ccn(C)n2)cn2nc(-c3nccn3C)nc(Nc3cc[nH]n3)c12` [Compound 256, 5-Methyl-2-(1-methyl-1H-imidazol-2-yl)-6-(1-methyl-1H-pyrazol-3-yl)-N-(1H-pyrazol-3-yl)pyrrolo[2,1-f][1,2,4]triazin-4-amine], the “% inh of Akt phosphorylation in Panc-1” value in assay [1] is given as “D* (85-100% activation)”. Further, in assay [2], the “KRas G12D mutant + SOS: % inh.” value is reported as “D (D = 76-100% inhibition)” and the “KRas G12D mutant: % inh.” value is given as “D (D = 76-100% inhibition)”. The inhibition at 20 µM in assay [3] lay within 76 to 100%. Moreover, in assay [4], the “KRas wild type + SOS: % inh.” value is recorded as “D (D = 76-100% inhibition)” and the “KRas wild type: % inh.” value was “A (A = 1-25% inhibition)”.
With `Cc1c(-c2ccn(C)n2)cn2nc(-c3nccn3C)nc(N3CCc4cc(C(F)(F)F)cnc43)c12` [Compound 251, 5-Methyl-2-(1-methyl-1H-imidazol-2-yl)-6-(1-methyl-1H-pyrazol-3-yl)-4-(5-(trifluoromethyl)-2,3-dihydro-1H-pyrrolo[2,3-b]pyridin-1-yl)pyrrolo[2,1-f][1,2,4]triazine], the “% inh of Akt phosphorylation in Panc-1” value in assay [1] was “A (1-25% inhibition)”. In assay [2], the “KRas G12D mutant + SOS: % inh.” value was “B (B = 26-49% inhibition)” and the “KRas G12D mutant: % inh.” value is given as “C (C = 50-75% inhibition)”. Also, in assay [3], the inhibition at 20 µM fell in the range of 26 to 49%. Also, in assay [4], the “KRas wild type + SOS: % inh.” value is reported as “A (A = 1-25% inhibition)” and the “KRas wild type: % inh.” value is “B (B = 26-49% inhibition)”.
In the case of `COc1cc(Nc2nc(-c3nccn3C)nn3cc(-c4ccn(C)n4)c(C)c23)ncc1-n1cnc(C)c1` [Compound 244, N-(4-Methoxy-5-(4-methyl-1H-imidazol-1-yl)pyridin-2-yl)-5-methyl-2-(1-methyl-1H-imidazol-2-yl)-6-(1-methyl-1H-pyrazol-3-yl)pyrrolo[2,1-f][1,2,4]triazin-4-amine], the “% inh of Akt phosphorylation in Panc-1” value in assay [1] is “D* (85-100% activation)”. Moreover, in assay [2], the “KRas G12D mutant + SOS: % inh.” value was “D (D = 76-100% inhibition)” and the “KRas G12D mutant: % inh.” value is recorded as “D (D = 76-100% inhibition)”. The inhibition at 20 µM in assay [3] is 76 to 100%. Besides, in assay [4], the “KRas wild type + SOS: % inh.” value is recorded as “D (D = 76-100% inhibition)” and the “KRas wild type: % inh.” value was “C (C = 50-75% inhibition)”.
On to `Cc1c(-c2ccn(C)n2)cn2nc(-c3nccn3C)nc(-n3[nH]c(N)cc3=O)c12` [Compound 261, 5-Amino-2-(5-methyl-2-(1-methyl-1H-imidazol-2-yl)-6-(1-methyl-1H-pyrazol-3-yl)pyrrolo[2,1-f][1,2,4]triazin-4-yl)-1,2-dihydro-3H-pyrazol-3-one], for which the “% inh of Akt phosphorylation in Panc-1” value in assay [1] is recorded as “B (26-49% inhibition)”. In assay [2], the “KRas G12D mutant + SOS: % inh.” value is on record as “C (C = 50-75% inhibition)” and the “KRas G12D mutant: % inh.” value is reported as “D (D = 76-100% inhibition)”. In assay [3], the inhibition at 20 µM was 76 to 100%. In addition, in assay [4], the “KRas wild type + SOS: % inh.” value is listed as “C (C = 50-75% inhibition)” and the “KRas wild type: % inh.” value is “C (C = 50-75% inhibition)”.
